Several values for one entry are separate records, joined by “and”; a condition that tells them apart may be missing. Identical values can stand only once. Entries after “also recorded” stand apart in the source; their conditions may differ.
What was measured:
[1] = In vitro drug release from PEG-b-PLA micelles (dialysis method); assay type: physicochemical
Description: (§1) SDMs or MDMs were prepared and characterized as described above. Post micelle preparation each sample was diluted with DD H2O, to yield about 0.10 mg/mL of each drug. A volume of 2.5 mL of the prepared sample was loaded into a 3 mL Slide-A-Lyzer® (Thermo Scientific Inc.) dialysis cassette with a MWCO of 20,000 g/mol. Four cassettes were used in each experiment. The cassettes were placed in 2.0 L of buffer which was changed every 3 hours to ensure sink conditions for drug(s) and polymer. A sample of 100 μL was drawn from each cassette at various sampling time intervals and then replaced with 100 μL of fresh buffer. […] The amount of drug(s) in each sample was quantified by HPLC as described above.
Statistical analysis was performed using one-way ANOVA at 5% significance level combined with Tukey's Multiple Comparison Test or t-test at 5% significance level. Curve-fitting analysis using one phase exponential association was used to calculate the half-life (t1/2) of drug in in vitro drug release experiments. Both analyses were performed using GraphPad Prism version 5.00 for Windows, Graph-Pad Software, San Diego Calif. USA, www.graphpad.com.
as §1, with “Post-micelle preparation,” for “Post micelle preparation”, “yield samples of” for “yield”, “reverse phase HPLC.” for “HPLC as described above.”

[2] = Drug solubilization by PEG-b-PLA micelles (drug level in water, reverse phase HPLC); details: SDM or MDM, PEG-b-PLA (4.2K:1.9K) micelles
Description: The drug-polymer mixture was dissolved in 0.50 mL acetonitrile (ACN). The ACN was removed at 60° C. under reduced pressure on a rotary evaporator resulting in the formation of a homogenous film, The drug-polymer film was rehydrated with 0.50 mL of DD H2O at 60° C. with gentle agitation resulting in a clear solution of drug-loaded PEG-b-PLA micelles. The micellar solution was filtered using a 0.45 μm filter, and the micelles were characterized in terms of size and loading by Dynamic Light Scattering (DLS) and HPLC respectively.
MDMS were prepared similarly to the SDMs by mixing 2.0 mg of each drug with 15 mg of the polymer. The procedure for the preparation and characterization of these micelles was identical to the SDMs.
The content of drug loaded in PEG-b-PLA micelles was quantified by reverse phase HPLC. The HPLC system used for quantifying was a Shimadzu prominence HPLC system (Shimadzu, JP), consisting of a LC-20AT pump, SIL-20AC HT autosampler, CTO-20AC column oven and a SPD-M20A diode array detector. A sample of 10 μL was injected into a Zorbax SB-C8 Rapid Resolution cartridge (4.6×75 mm, 3.5 micron, Agilent). The column temperature was maintained at 40° C. throughout the run. Two HPLC methods were developed to quantify the amount of the drug(s) loaded in PEG-b-PLA micelles.
The mobile phase was an isocratic mixture of 45% ACN and 54% aqueous phase containing 0.1% phosphoric acid and 1% methanol in DD H2O.
The mobile phase was a gradient mixture of ACN and aqueous phase containing 0.1% phosphoric acid and 1% methanol in DD H2O. […] With both HPLC methods samples were injected twice and reproducible and rapid separation of the drugs was achieved.
Mn of PEG and PLA of PEG-b-PLA was 4,200 and 1,900 g/mol, respectively (APC Inc., UK). ACN was removed by heating at 60° C. and reduced pressure. The resultant dry polymer film containing anti-cancer agent(s) was dissolved by addition of water (0.50 mL) at 60° C. with gentle agitation.
The resultant dry PEG-b-PLA film containing drugs was dissolved by the addition of water (0.50 mL) at 60° C. with gentle agitation.

[3] = Acute toxicity experiments in FVB female albino mice; details: PEG-b-PLA micelles, 3 IV injections days 0, 4, 8; paclitaxel 60, 17-AAG 60, rapamycin 30 mg/kg
Description: Briefly, acute toxicity experiments were carried out in FVB female albino mice with 3 IV injections on days 0, 4, and 8, measuring body weights and monitoring survival over 12 days (FIG. 21).

[4] = % drug loading of PEG-b-PLA micelles (wt drug(s)/wt polymer); assay type: physicochemical; details: all drugs of the SDM or MDM together, PEG-b-PLA (4.2K:1.9K) micelles
Description: Drug(s) to polymer w/w percent was calculated for SDM and MDM. PEG-b-PLA micelles were freeze dried, weighed and the amount of drug(s) in the freeze dried sample was quantified by HPLC. The drug w/w percent was calculated as the mass of the drug(s) to the mass of polymer in the freeze dried sample multiplied by 100.

[5] = Dynamic light scattering size of SDM and MDM; assay type: physicochemical; details: DLS, drug-loaded SDM or MDM
Description: The drug-loaded micellar solutions were diluted 20 times with DD H2O and the samples was equilibrated for 2 min at 25° C. before the measurements. […] The hydrodynamic diameter of PEG-b-PLA micelles was calculated based on the Stokes-Einstein equation. Correlation function was curve fitted by cumulant method to calculate mean size and polydispersion index (PDI). All measurements were repeated three times, and volume-weighted particle sizes were presented as the average diameter with standard deviation.

[6] = system: MCF-7 human breast cancer cells; assay: In vitro cytotoxicity, resazurin assay, and combination index; assay type: cell-based; details: Homo sapiens, MCF7, 72 h; read-out: IC50
Description: (§2) MCF-7 human breast cancer cells were cultured in DMEM medium while 4T1 murine breast cancer cells, A549 human non-small cell lung cancer cells, and LS180 human colon cancer cells were cultured in RPMI1640 medium. Both media were supplemented with 10% fetal bovine serum (FBS) with antibiotics under 5% CO2 and 37° C. in an incubator. […] Free drugs were dissolved in DMSO, and drug-loaded PEG-b-PLA micelles were in deionized water. The samples were diluted with cell culture media to make 0.10, 1.0, 10, 100 and 1000 nM in 96 well plates. […] The metabolic conversion of resazurin dye by each viable cancer cell was quantified using a fluorescence cell plate reader (SpectraMax M2, Molecular Devices, USA) to estimate cell viability. […] IC50 values of free drugs and drug-loaded PEG-b-PLA micelles were calculated based on median-effect equation using Compusyn software (ver. 1.0).
(§3) CI values were obtained at IC50 values for 2- or 3-drug combinations. CI<1, C=1, and CI>1 were used as criteria to determine whether 2- or 3-drug combinations are synergistic, additive, and antagonistic, respectively (FIGS. 13-20).

[7] = system: A549 human non-small cell lung cancer cells; assay: as above; assay type: cell-based; details: drug(s) in SDM or MDM, 72 hours, unit inferred, PTX/17-AAG 4.7:1, RAP/17-AAG 1:1, RAP/PTX 1:1, RAP/PTX/17-AAG 1:5:1, read-out: IC50
Description: as §2, §3

[8] = cited from earlier work
[9] = Physical stability / drug loss from PEG-b-PLA micelles after 24 hours (turbidity, HPLC); assay type: physicochemical; details: for drug precipitated at 24 hours: SDM, HPLC data; for % w/w drug(s) left @ 24 hr / initial drug level in water / drug level @ 24 hr in water: PEG-b-PLA micelles; for time the micelles were physically stable: turbidity, ambient temperature
Description: Turbidity measurements were used to evaluate the physical stability of drug-loaded PEG-b-PLA micelles. A CARY 50 BIO UV-Visible spectrophotometer equipped with dip probe was used to measure turbidity. Micellar solutions were diluted six times, for a final concentration of PEG-b-PLA of 5 mg/mL, with DD H2O and filtered through 0.45 μm filter. […] Each measurement was performed in triplicate.

[10] = system: 4T1 murine breast cancer cells; assay: In vitro cytotoxicity, resazurin assay, and combination index; assay type: cell-based; details: drug(s) in SDM or MDM, 72 hours, unit inferred, PTX/17-AAG 4.7:1, RAP/17-AAG 1:1, RAP/PTX 1:1, RAP/PTX/17-AAG 1:5:1, read-out: IC50
Description: as §2, with “The samples were diluted with cell culture media to make 0.10, 1.0, 10, 100 and 1000 nM in 96 well plates.” left out
as §3

[11] = system: H-358 human non-small-cell lung cancer xenografts; details: combined with 17-AAG; cited from earlier work
[12] = system: pediatric acute lymphoblastic leukemia cell lines; details: combination of 17-AAG and ETO, four cell lines; cited from earlier work

In the case of CC(=O)O[C@H]1C(=O)[C@@]2(C)[C@H]([C@H](OC(=O)c3ccccc3)[C@]3(O)C[C@H](OC(=O)[C@H](O)[C@@H](NC(=O)c4ccccc4)c4ccccc4)C(C)=C1C3(C)C)[C@]1(OC(C)=O)CO[C@@H]1C[C@@H]2O [Paclitaxel], the “behaviour of PTX during the release test” value ([1]; SDM, dialysis, listed as PTX) is reported as “Rapid precipitation; also recorded: precipitated during release”, the “drug level in water” value ([2]; analyte paclitaxel) is reported as 3540 ± 320 µg/mL and the “drug level in water” value ([2]; analyte paclitaxel, listed as PTX) is reported as 3500 µg/mL. For the same molecule, the acute toxicity [3] was “low”, the “% drug loading (wt. drug(s)/wt. polymer)” value [4] was 11.8 ± 1.1% and 10.3 ± 0.9% and the “% drug loading (wt. drug(s)/wt. polymer)” value ([4]; listed as PTX) was 10.3%. For the same molecule, the PEG-b-PLA micelle diameter [5] was 38.8 ± 0.6 nm, the IC50 [6] was 226 ± 32 nM and the IC50 [7] was 397 ± 59 nM. The “solubility of paclitaxel in water” value ([8]; without micelles) was “approximately 1 μg/mL”, the “drug precipitated at 24 hours” value [9] was “approximately 84%” and the “% w/w drug(s) left @ 24 hr” value ([9]; analyte paclitaxel) was 16.2 ± 1.0 % w/w. For the same molecule, the “initial drug level in water” value ([9]; analyte paclitaxel) was 3.54 ± 0.32 mg/mL, the “drug level @ 24 hr in water” value ([9]; analyte paclitaxel) was 570 ± 70 µg/mL and the “time the micelles were physically stable” value [9] was “approximately 6 hours”. The IC50 [10] was 11200 ± 4160 nM and the “enhancement of PTX cytotoxicity” value [11] was 5-22 fold.
For COc1cc([C@@H]2c3cc4c(cc3[C@@H](O[C@@H]3O[C@@H]5CO[C@@H](C)O[C@H]5[C@H](O)[C@H]3O)[C@H]3COC(=O)[C@H]23)OCO4)cc(OC)c1O [Etoposide], the first-order rate constant ([1]; release of etoposide, 12.5 mM PBS, pH=7.4, 37° C.) was 0.636 h⁻¹, the “drug level in water” value ([2]; analyte etoposide) was 3310 ± 150 µg/mL and the “% drug loading (wt. drug(s)/wt. polymer)” value [4] was 11.0 ± 0.5%. The “% drug loading (wt. drug(s)/wt. polymer)” value ([4]; listed as ETO) was 9.6%, the PEG-b-PLA micelle diameter [5] was 32.6 ± 1.0 nm and the “decrease of the IC50 of ETO” value [12] was 10 fold. For the same molecule, the “intrinsic solubility in water” value ([8]; drug without micelles) was 58 µg/mL, the “drug precipitated at 24 hours” value [9] was about 68% and the “% w/w drug(s) left @ 24 hr” value ([9]; analyte etoposide) was 32.3 ± 3.4 % w/w. The “initial drug level in water” value ([9]; analyte etoposide) was 3.31 ± 0.15 mg/mL, the “drug level @ 24 hr in water” value ([9]; analyte etoposide) was 1070 ± 160 µg/mL and the “time the micelles were physically stable” value [9] was “approximately 6 hours”.
